In patent US20170000784A1, “Autophagy Inhibitors” (priority 2013, published 2017):
Where two headings read alike, the source gives them in different places.

Legend:
[1] = system: endogenous LC3 in U2OS cells; assay: Western blot of endogenous LC3 (LC3-II accumulation) in U2OS; assay type: cell-based; settings: three hours, basally and in response to rapamycin-induced autophagy induction, FIG. 7
Protocol: For Western blotting, U2OS cells were seeded in 10 cm plates in 5A McCoy's with 10% FBS at 1×10^6 cells per plate. […] After treatment, cells were lysed [10 mM KPO4, 1 mM EDTA, 10 mM MgCl2, 5 mM EGTA, 50 mM bis-glycerophosphate, 0.5% NP40, 0.1% Brij35, 0.1% sodium deoxycholate, 1 mM NaVO4, 5 mM NaF, 2 mM DTT, and complete protease inhibitors (Sigma, P8340-5 mL)] and 50 μg of protein was resolved by SDS-PAGE. […] Proteins were detected with enhanced chemiluminescence or using the Odyssey machine and quantified (FIGS. 12, 15, 16, 7 and 11).

[2] = system: U2OS cells stably expressing tfLC3; assay type: cell-based; settings: for Effective Concentration (EC): concentration with statistically significant increase in puncta number over vehicle control, three hours
Protocol: U2OS cells stably expressing tfLC3 were seeded at 50,000 cells per well in 5A McCoy's with 10% FBS on number 1.5 coverglass in 24-well tissue culture dishes. After 24 hours, cells were treated with known autophagy controls rapamycin [100 nM] (Millipore, 553210-10 mg), bafilomycin A1 [100 nM] (AG Scientific, B-1183), AZD-8055 [100 nM](Selleck Chemicals, S1555), and CQ [50 μM] as well as autophagy inhibitors (CQ, QN, Example 7, and Example 27) at doses of 0.1 μM, 0.25 μM, 0.5 μM, 1 μM, 5 μM, 15 μM, 25 μM, and 50 μM for three hours. Cells were washed with 1×PBS, fixed with 3.7% formaldehyde, and nuclei were stained with Hoechst 33342 (2 μg/mL). Coverglass was inverted onto microscope slides using mounting gel. Cells were imaged using a 60× oil-immersion objective on a Nikon Eclipse Ti fluorescent microscope and 10 images at each dose were taken for quantification. Image processing and quantification were completed with the Nikon NIS Elements software. To quantify, images were deconvolved using a 2D blind deconvolution function with one iteration and settings of normal cell thickness and normal noise level. Regions of interest (ROI) were drawn around the edges of each cell. Intensity thresholds were set to include all pixels equal to or greater than the intensity above the mean background fluorescence using the separation feature and restrictions set for puncta size (FIG. 9). Objects within the threshold for each ROI were quantified using an automated object count function and exported for analysis. Although other parameters were also collected, the mean intensity of the objects was averaged between the 10 images of each dose, or approximately 50 cells (FIGS. 9B and 9C). Representative images were chosen for each dose and the lookup table (LUT) brightness' were set based on the mean intensity of the DMSO control (FIGS. 8A and 10A). The mean intensity of each image was divided by the mean intensity of the DMSO control to control for brightness and the LUTs were adjusted by the percent difference to avoid background and for consistent visualization. All other settings (gain, exposure time, and lamp strength) were kept the same across all conditions. […] Mean intensity was further chosen for quantification as it accurately represents both the increase in puncta number and area when the accumulation of autophagosomes partially fuse (FIG. 9C, 9D). Quantification of the red channel (RFP-LC3 puncta) was performed to determine the total autophagic vesicle population (both autophagosomes and autolysosomes).
Autophagy inhibition can be measured by fluorescent microscopy using cells expressing a tandem fluorescent (RFP-GFP) labeled LC3 sensor (tfLC3). Upon autophagosome nucleation, LC3 is localized to the autophagic membrane and the overlapping GFP and RFP fluorescence appears as yellow puncta. After the autophagosome matures, it fuses with the lysosome, forming an autolysosome. The GFP in this LC3 sensor is pH labile and becomes quenched by the acidic environment of the autolysosome. However, the RFP remains stable; therefore, autolysosomes are indicated by red puncta. Accordingly, when autophagy is inhibited at the final stage (completion), the abundance of yellow puncta is expected to increase proportionally to the level of autophagy inhibition.
Cells were then fixed and imaged by fluorescent microscopy.

A375 cells = assay type: cell-based, human; settings: A375 soft agar; single compound at IC10
From the text: After three weeks of treatment, cells were fixed and stained in 1% paraformaldehyde in 1×PBS containing 0.005% crystal violet overnight. Cells were destained with multiple washes of 1×PBS to remove background staining. Plates were scanned and images quantified using Nikon NIS Elements software. To quantify, each image was sharpened and an ROI of equal size drawn around each well. Intensity thresholds were set to include all pixels equal to or greater than the intensity of the mean background fluorescence. Objects within the threshold of each ROI were quantified using an automated object count function and exported for analysis. Object number was quantified to denote total colony formation. […] Additivity was established when the expected viability determined by the Bliss independence model was equal to the actual viability. This model was chosen since the effects of both compounds are mutually non-exclusive and follow first order Michaelis-Menten kinetics.
To determine if the effects of each combination were more than, less than, or equal to additive, predictions for additivity were made using the Bliss Independence (Table 7), as disclosed in Yan H, Zhang B, Li S, Zhao Q. A formal model for analyzing drug combination effects and its application in TNF-alpha-induced NFkappaB pathway. BMC Syst. […] Drug combination studies and their synergy quantification using the Chou-Talalay method.

[3] = system: lysosomes (LAMP1, LysoTracker Red) in U2OS cells; assay: Lysosome analysis by fluorescent microscopy (LAMP1 / LysoTracker Red); assay type: cell-based; settings: 3 μM for 3 hours
Protocol: To determine deacidification of the lysosome, cells were incubated with LysoTracker Red, a dye that localizes to the lysosome based on the […] of the compartment. If the lysosome is no longer acidic, there is a loss in the amount of LysoTracker Red staining. Lysosomal inhibition was further determined by immunofluorescence of lysosome-associated membrane protein-1 (LAMP1). If the lysosome is inhibited, lysosomal turnover should decrease and an increase in the amount of LAMP1 staining would be apparent. U2OS cells were treated with Example 7 or Example 26 at 3 μM for 3 hours, supplementing LysoTracker Red for the final hour.
Using image analysis software, the mean intensities of both the LAMP1 and LysoTracker Red staining were measured and represent altered intensity level between treatments on intensity plots. Individual points were measured using a line scan on the image analysis software, which measures the intensity across the path of a line at any given point. Not only does the presence of LAMP1 positive membranes increases, but the intensity in LAMP1 staining also increases with Example 7 and Example 26 treatment. The inverse relationship in intensity holds true for LysoTracker Red staining.
U2OS cells were seeded at 5×10^4 cells per well in 5A McCoy's with 10% FBS on number 1.5 coverglass discs in 24-well tissue culture dishes. After 24 hours, cells were treated with 3 μM CQ, QN, VATG-027, or VATG-032 for three hours. An hour prior to fixation, media was supplemented with LysoTracker Red added at 100 nM (Invitrogen, L7528). Cells were washed with 1×PBS, fixed with 3.7% formaldehyde, permeabilized with 0.2% Triton-X 100, and blocked with 3% bovine serum albumin (BSA) in PBS. LAMP1 antibody (Santa Cruz, sc-18821) was added at 1:1000 for 16 hours at 4° C. followed by Alexa-Fluor-488-conjugated anti-mouse IgG (Invitrogen, A11008) 1:5000 for 1 hour at room temperature. Nuclei were stained with Hoechst 33342 (2 μg/mL). Coverglass discs were inverted onto a microscope slide using mounting gel. The microscope slides were imaged using a 60× oil-immersion objective on a Nikon Eclipse Ti fluorescent microscope. Intensity of the red and green channels were visualized using the intensity plot on the Nikon NIS Elements software (FIG. 13B). […] The RGB threshold of only the color […] indicating both LAMP1 and LysoTracker Red positivity was performed and data for analysis. The Mander's co-localization coefficient was produced from the Nikon NIS Elements software.
Next, the inventors sought to confirm the inhibition of lysosomal turnover induced by the compounds of the present invention, for example, those of Formula III, Formula III(a), Formula V, Formula V(a), Formula A, Formula A^1, Formula A^2, Formula A^3, or a pharmaceutically acceptable salt thereof, by evaluating the abundance of endogenous lysosomal protein, LAMP1. In addition, lysosome acidity was assessed by co-staining cells with LysoTracker Red, a dye that localizes to the lysosome based on the low pH. Cells were treated with 3 μM CQ, QN, Example 7, or Example 27 for 3 hours, with LysoTracker Red supplemented for the final hour. Following, cells were fixed and stained with endogenous LAMP1 antibodies and both LAMP1 and LysoTracker Red imaged. […] To quantify this phenotype, the co-localization of LAMP1 and LysoTracker Red was measured using image analysis software. […] In addition, Mander's colocalization coefficient (MCC) values were determined for each treatment (FIG. 13C). Not only does the presence of LAMP1-positive membranes increase, but the intensity of LAMP1 staining also increases with QN, Example 7, and Example 27 treatment (FIG. 13C).

With piperaquine the “accumulation of LC3-II” value [1] was “induce the accumulation of LC3-II”, the “Potency (EC/ECCQ)” value [2] was 0.25 and the “Effective Concentration (EC)” value [2] was 50 µM.
In the case of `COc1ccc(-c2ccc3c(N4CCOC[C@@H]4C)nc(N4CCOC[C@@H]4C)nc3n2)cc1CO` [AZD-8055, reference compound], the “Relative Growth Inhibition Compound B” value (A375 cells) is reported as 0.12.
In the case of `COc1cc(NC(C)CCCN)c2ncccc2c1` (stereo not drawn) [Primaquine, primaquine], the “accumulation of LC3-II” value [1] is reported as “induce the accumulation of LC3-II”, the “Effective Concentration (EC)” value [2] is reported as 50 µM and the “Potency (EC/ECCQ)” value ([2]; relative potency score versus chloroquine, greater than one = more potent than CQ) is reported as 0.25.
`CCN1CCC(Nc2c3c(nc4cc(Cl)ccc24)CCCC3)CC1` [Example 26, 6-Chloro-N-(1-ethylpiperidin-4-yl)-1,2,3,4-tetrahydroacridin-9-amine] was tested, and the LAMP1 staining [3] was “increases” and the “LysoTracker Red staining” value ([3]; LysoTracker Red for the final hour) was “less intense”.
With `CCN(CC)Cc1cc(Nc2ccnc3cc(Cl)ccc23)ccc1O` [Amodiaquine, amodiaquine] the “accumulation of LC3-II” value [1] was “induce the accumulation of LC3-II”, the “Potency (EC/ECCQ)” value [2] was 1 and the “Effective Concentration (EC)” value [2] was 15 µM.
